Data taken from ChEMBL document CHEMBL1145404, “o-Naphthalenedicarboxaldehyde derivative of 7'-aminonaltrindole as a selective delta-opioid receptor affinity label” (J Med Chem, 2007).

How the values were obtained:
[1] = target: Opioid receptors; delta & kappa (Homo sapiens) (UniProt P41145+P41143); assay: Selectivity for human delta opioid receptor to human kappa opioid receptor; format: protein assay
Mu-type opioid receptor [2] = target: Mu-type opioid receptor (Homo sapiens, UniProt P35372); assay: Displacement of [3H]diprenorphine from mu opioid receptor expressed in human HEK293 cells; format: cell-based
Mu-type opioid receptor [3] = target: Mu-type opioid receptor (Cavia porcellus, UniProt P97266); assay: Agonist activity at mu opioid receptor in guinea pig ileum longitudinal muscle; format: functional, tissue-based
[4] = target: Delta-type opioid receptor (Homo sapiens, UniProt P41143); assay: Displacement of [3H]diprenorphine from delta opioid receptor expressed in human HEK293 cells; format: cell-based
[5] = target: Kappa-type opioid receptor (Homo sapiens, UniProt P41145); assay: Displacement of [3H]diprenorphine from kappa opioid receptor expressed in human HEK293 cells; format: cell-based
[6] = target: Opioid receptors; mu & delta (Homo sapiens) (UniProt P41143+P35372); assay: Selectivity for human delta opioid receptor to human mu opioid receptor; format: protein assay
[7] = target: Delta-type opioid receptor (Mus musculus, UniProt P32300); assay: Agonist activity at delta opioid receptor in mouse vas deferens; format: functional, tissue-based
Sequence of Delta-type opioid receptor (Mus musculus, UniProt P32300) (P32300 whole entry): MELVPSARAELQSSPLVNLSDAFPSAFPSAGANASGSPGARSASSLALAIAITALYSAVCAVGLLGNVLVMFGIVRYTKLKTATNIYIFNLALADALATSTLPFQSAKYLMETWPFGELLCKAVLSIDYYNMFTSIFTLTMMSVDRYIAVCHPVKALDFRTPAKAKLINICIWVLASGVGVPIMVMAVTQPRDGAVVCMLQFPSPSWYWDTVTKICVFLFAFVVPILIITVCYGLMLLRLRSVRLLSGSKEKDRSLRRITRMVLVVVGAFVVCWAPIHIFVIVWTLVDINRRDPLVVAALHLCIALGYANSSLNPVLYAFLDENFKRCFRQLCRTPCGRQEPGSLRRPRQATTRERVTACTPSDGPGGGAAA

Sequence of Mu-type opioid receptor (Homo sapiens, UniProt P35372) (P35372 whole entry): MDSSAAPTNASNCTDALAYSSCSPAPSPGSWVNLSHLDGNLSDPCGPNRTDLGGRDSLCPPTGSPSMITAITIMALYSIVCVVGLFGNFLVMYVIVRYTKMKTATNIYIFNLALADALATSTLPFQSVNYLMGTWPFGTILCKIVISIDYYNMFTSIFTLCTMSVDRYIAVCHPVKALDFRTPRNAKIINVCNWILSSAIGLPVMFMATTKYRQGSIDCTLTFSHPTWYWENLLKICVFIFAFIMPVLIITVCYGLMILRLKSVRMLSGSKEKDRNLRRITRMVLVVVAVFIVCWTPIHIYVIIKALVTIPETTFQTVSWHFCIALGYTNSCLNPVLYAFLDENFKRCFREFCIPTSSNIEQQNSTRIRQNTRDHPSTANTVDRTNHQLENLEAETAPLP
Sequence of Opioid receptors; mu & delta (Homo sapiens) (P35372 whole entry, looked up): as the sequence (P35372 whole entry) above
Sequence of Opioid receptors; mu & delta (Homo sapiens) (P41143 whole entry, looked up): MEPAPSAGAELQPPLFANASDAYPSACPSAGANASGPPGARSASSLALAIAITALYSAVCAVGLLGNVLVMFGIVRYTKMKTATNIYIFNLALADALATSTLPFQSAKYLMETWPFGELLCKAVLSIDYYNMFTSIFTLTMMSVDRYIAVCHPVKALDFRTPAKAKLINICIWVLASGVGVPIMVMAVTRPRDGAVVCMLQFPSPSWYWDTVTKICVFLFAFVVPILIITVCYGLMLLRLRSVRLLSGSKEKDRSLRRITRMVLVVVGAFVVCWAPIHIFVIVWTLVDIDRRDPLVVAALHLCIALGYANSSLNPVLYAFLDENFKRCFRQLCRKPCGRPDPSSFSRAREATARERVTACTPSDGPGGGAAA
Sequence of Kappa-type opioid receptor (P41145 whole entry): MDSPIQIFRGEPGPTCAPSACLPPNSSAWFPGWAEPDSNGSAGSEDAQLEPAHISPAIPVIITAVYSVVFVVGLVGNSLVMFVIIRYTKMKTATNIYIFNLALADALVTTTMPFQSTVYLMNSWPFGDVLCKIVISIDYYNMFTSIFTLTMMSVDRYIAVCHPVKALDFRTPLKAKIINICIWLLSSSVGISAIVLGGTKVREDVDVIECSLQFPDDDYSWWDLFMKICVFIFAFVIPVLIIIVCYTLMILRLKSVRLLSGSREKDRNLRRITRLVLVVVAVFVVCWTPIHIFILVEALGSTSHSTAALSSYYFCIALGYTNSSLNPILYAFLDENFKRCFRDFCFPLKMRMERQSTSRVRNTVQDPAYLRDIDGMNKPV
Sequence of Mu-type opioid receptor (Cavia porcellus, UniProt P97266) (P97266 whole entry): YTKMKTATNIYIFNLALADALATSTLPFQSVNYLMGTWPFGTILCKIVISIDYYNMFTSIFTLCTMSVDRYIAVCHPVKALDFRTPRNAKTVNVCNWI
Sequence of Opioid receptors; delta & kappa (Homo sapiens) (P41143 whole entry, looked up): as the sequence (P41143 whole entry, looked up) above
Sequence of Opioid receptors; delta & kappa (Homo sapiens) (P41145 whole entry, looked up): as the sequence (P41145 whole entry) above
Sequence of Delta-type opioid receptor (Homo sapiens, UniProt P41143) (P41143 whole entry): as the sequence (P41143 whole entry, looked up) above

SMILES: O=Cc1cc2ccc(C(=O)Nc3cccc4c5c([nH]c34)[C@@H]3Oc4c(O)ccc6c4[C@@]34CCN(CC3CC3)[C@H](C6)[C@]4(O)C5)cc2cc1C=O
- Ratio Ki [1]: 68
- Ki (Mu-type opioid receptor [2]): 144 nM
- IC50 (Mu-type opioid receptor [3]): 19.5 nM
- Ki [4]: 2.25 nM
- Ki [5]: 153 nM
- Ratio Ki [6]: 64
- IC50 [7]: 0.46 nM
